Legend:
Format in all cases: in vivo
[1] = system: DIO-NASH mice; test: DIO-NASH mice, 8 weeks oral treatment, liver fibrosis readouts (Example 1); conditions: oral once per day; for liver Picro-Sirius Red (PSR) staining (total liver collagen 1 and 3 by morphometry): Compound 1 10 mg/kg; for proportion of animals with a reduction in fibrosis score post-treatment: vs mock treated animals
Description: DIO-NASH mice were acclimatized for 3 weeks, with pre-treatment liver biopsy samples collected prior to acclimatization. Mice were randomly assigned to one of five dosing groups, with 12 mice per group. Assigned dosages were: Compound 2 (low): 3 mg/kg; Compound 2 (high): 10 mg/kg; Compound 1: 10 mg/kg; and Elafibranor (30 mg·kg). One group was mock treated with vehicle only as a control. Dosage forms were administered orally once per day. After 8 weeks, animals were sacrificed and liver samples were taken. Liver samples were assayed for total liver hydroxyproline, and subjected to immunohistochemical observation for fibrosis stage as well as the extent of Cola1 (Collagen Type Ia) staining. […] Since hydroxyproline is a significant component of collagen, and collagen is the most significant source of hydroxyproline in animal tissues, levels of hydroxyproline provide a reliable proxy for the presence of collagen in a sample.
Terminal liver biopsy samples were also subjected to histochemical staining and immunohistochemical staining. Representative images of liver stained with Picro-Sirius Red (to visualize collagen I and III deposition, red stain) at the end of the treatment period following 8 weeks of treatment with vehicle, low dose Compound 2, high dose Compound 2, Compound 1, or elafibranor are shown in FIG. 2. […] Representative images of liver stained with anti-type I collagen (col1a1) (Southern Biotech, Cat. 131001) at the end of the treatment period following 8 weeks of treatment with vehicle, low dose Compound 2, high dose Compound 2, Compound 1, or elafibranor are shown in FIG. 3. The extent of ColA1 content was calculated as the total liver ColA1 staining in terminal liver biopsy samples.
Fibrosis scores were also calculated based on observation of terminal liver biopsy samples.

[2] = system: diet-induced NASH mouse model; test: diet-induced NASH mouse model, 8-week dosing (Example 6); design: reduction in fibrosis (fibrosis score) / reduction in type 1 collagen deposition / reduction in hydroxyproline / reduction of expression of pro-fibrotic gene Colla1 / reduction of expression of pro-fibrotic gene Col3a1 / reduction of expression of pro-fibrotic gene αSMA / reduction of expression of pro-fibrotic gene Galectin 1: concentration or dose not given beside the values; conditions: diet-induced NASH mice, oral dosing 8 weeks
Description: Compound 2 was evaluated in a diet-induced NASH mouse model (See, e.g., Hansen, H. et al., Drug Discovery Today 22(17):1701-1718 (2017) which is hereby incorporated by reference with respect to its disclosure of diet-induced, genetic, chemical, and other NASH mouse models). […] Animals were biopsied pre-study, and only animals with NASH and fibrosis were selected for study. Selected animals were acclimatized and randomized, with experimental groups of 11-12 animals per cohort receiving oral dosing of compound 2 according to the following schedules: Daily dosing for 8 weeks; or daily dosing for week 0-1 followed by weekly dosing for weeks 2-8. At week 8, animals were sacrificed and tissues analyzed. Plasma enzymes (P-ALT (alanine aminotransferase) and P-AST (aspartate aminotransferase)), total plasma triglycerides, and total plasma cholesterol were measured, and terminal necropsy of each liver was carried out, assaying total liver biochemistry including total liver triglycerides, and total liver cholesterol, as well as histological evaluation of NAFLD activity score (done pre- and post-treatment), fibrosis stage (also done pre- and post-treatment), steatosis, Colla1 level, and galactin-3 level. Tissue samples were preserved for characterization using RNAseq; RNAseq was used to determine expression levels for genes showing differential expression in compound 2-treated vs. vehicle treated animals and/or genes known to be implicated in fibrosis.

[3] = system: male Dunkin-Hartley guinea pigs; test: bleomycin-induced pulmonary fibrosis (Example 2); conditions: guinea pig lung biopsies, 6-10 weeks treatment; relative to levels prior to administration
Description: Pulmonary fibrosis is induced in healthy male Dunkin-Hartley guinea pigs by administering bleomycin intratracheally. Control subjects are developed by intratracheal administration of saline solution. After the establishment of pulmonary fibrosis in the bleomycin treated animals, test articles comprising any one of Compounds 1-4, or any other compound disclosed herein, are administered to each subject as appropriate for its formulation, daily or as appropriate, for 6-10 weeks. Unilateral lung biopsies are taken prior to the first administration of the test articles and again after sacrifice following the last administration of the test articles. Biopsy samples are analyzed as described in Example I, with the addition of immunohistochemical staining for type III collagen. […] Mock treated animals show little or no reduction in fibrosis, hydroxyproline content, or Collagen III content.

[4] = system: nude mice; test: palmar fascia fibrosis induced by Dupuytren's disease fibroblasts (second Example 2); conditions: nude mice forepaw biopsies, 6-10 weeks treatment; relative to levels prior to administration
Excerpt: Palmar fascia fibrosis is induced in nude mice by introducing fibroblasts from fibrotic cords of Dupuytren's disease patients as described in Stish, L. et al., BMC Musculoskelet. Disord. 16: 138-148 (2015) which is hereby incorporated by reference with respect to its description of the establishment of an animal model system for the study of palmar fascia fibrosis. After the establishment of palmar fascia fibrosis in the fibroblast treated animals, test articles comprising any one of Compounds 1-4, or any other compound disclosed herein, are administered to each subject as appropriate for its formulation, daily or as appropriate, for 6-10 weeks. Unilateral forepaw biopsies are taken prior to the first administration of the test articles and again after sacrifice following the last administration of the test articles. Biopsy samples are analyzed as described in Example 1, with the addition of immunohistochemical staining for type I collagen. […] Mock treated animals show little or no reduction in fibrosis, hydroxyproline content, or Collagen III content.

[5] = system: Sprague-Dawley Rats or C57BL mice; test: hypertrophic skin lesions induced by capsaicin, CCl4 and/or bleomycin (Example 3); conditions: rat or mouse skin biopsies, 6-10 weeks treatment; relative to levels prior to administration
Excerpt: Hypertrophic skin lesions are induced in Sprague-Dawley Rats by subcutaneous injection of capsaicin as described in Wallengren, J. et al., Skin Pharm. Appl. Skin Physiol. 15(3):154-165 (2002), which is hereby incorporated by reference with respect to its description of the induction of hypertrophic skin lesions in rats; or in C57BL or other appropriate strain mice by subcutaneous administration of CCl4 and/or bleomycin, as described in Alonso-Merino et al., Proc. Nat. Acad. Sci. 113(24):E3451-60 (2016), which is incorporated herein for its disclosure of the induction of fibrotic skin lesions in mice. After the establishment of hypertrophic skin lesions in the capsaicin, CCl4 and/or bleomycin treated animals, test articles comprising any one of Compounds 1-4, or any other compound disclosed herein, are administered to each subject animal as appropriate for its formulation, daily or as appropriate, for 6-10 weeks. Skin biopsies from the injection site are taken prior to the first administration of the test articles and again after sacrifice following the last administration of the test articles. Biopsy samples are analyzed as described in Example I, with the addition of immunohistochemical staining for type III collagen. […] Mock treated animals show little or no reduction in fibrosis, hydroxyproline content, or Collagen III content.

[6] = system: Glucose-6-phosphatase-α deficient mice (Agl−/−); test: GSD-3-like hepatic symptoms in Agl-/- mice (Example 4); conditions: Agl−/− mice liver biopsies, 6-10 weeks treatment; relative to levels prior to administration
Description: (§1) Glucose-6-phosphatase-α deficient mice that manifest GSD-3-like hepatic symptoms, including hypercholesterolemia and hyperlipidemia (Agl−/−, see e.g. Liu, K. M. et al., Mol. Genet. Metabol. 111(4):467-76 (2014)) are treated with test articles comprising any one of Compounds 1-4, or any other compound disclosed herein, administered to each subject as appropriate for its formulation, daily or as appropriate, for 6-10 weeks. Liver biopsies are taken prior to the first administration of the test articles and again after sacrifice following the last administration of the test articles. […] Mock treated animals show little or no reduction in fibrosis, hydroxyproline content, or Collagen I content.

[7] = system: Phosphorylase kinase deficient mice (PhKc−/−); test: GSD-8/9-like hepatic symptoms in PhKc-/- mice (Example 5); conditions: PhKc−/− mice liver biopsies, 6-10 weeks treatment; relative to levels prior to administration
Description: as §1, with “Phosphorylase kinase” for “Glucose-6-phosphatase-α”, “GSD-8/9-like” for “GSD-3-like”, “(PhKc−/−, see, e.g., Varsanyi,” for “(Agl−/−, see e.g. Liu, K.”, “Biochem.” for “Mol.”, “18(3-4):247-61 (1980)),” for “Metabol. 111(4):467-76 (2014))”

[8] = Compound 2 3 and 10 mg/kg, vs elafibranor (control) and vehicle (mock)
[9] = liver RNAseq, FIG. 8, vs vehicle-treated controls
[10] = liver, FIG. 7, relative to pre-treatment samples

## Cc1cc(OCP(=O)(OCOC(=O)C(C)(C)C)OCOC(=O)C(C)(C)C)cc(C)c1Cc1ccc(O)c(Cc2ccccc2)c1 [Compound 1]
[1]; [8]
  liver Picro-Sirius Red (PSR) staining (total liver collagen 1 and 3 by morphometry): lower PSR staining than those from mock-treated animals
[1]
  proportion of animals with a reduction in fibrosis score post-treatment: higher proportion

## Cc1cc(OCP2(=O)OCC[C@@H](c3cccc(Cl)c3)O2)cc(C)c1Cc1ccc(O)c(C(C)C)c1 (stereo partly shown) [Compound 2]
[1]
  animals with increases in fibrosis score post-treatment: No Compound 2-treated animals showed increases
  proportion of animals with a reduction in fibrosis score post-treatment: higher proportion
[1]; [8]
  liver Picro-Sirius Red (PSR) staining (total liver collagen 1 and 3 by morphometry): lower PSR staining than control-treated or mock-treated animals
[1]; Compound 2 3 mg/kg (low) and 10 mg/kg (high), vs elafibranor 30 mg/kg (control) and vehicle (mock)
  total liver hydroxyproline: lower total liver hydroxyproline levels than control-treated or mock-treated animals
[1]; Compound 2 3 and 10 mg/kg, terminal liver biopsy, vs elafibranor (control) and vehicle (mock)
  total liver ColA1 content (anti-type I collagen staining): lower total liver ColA1 content than control-treated or mock-treated animals
[2]
  NAS scores (NAFLD activity score): significant improvements
  toxicity: No significant toxicity
[2]; FIG. 6, vs vehicle-treated controls
  reduction of total lipid content in the liver: approximately 80%
[2]; [9]
  reduction of expression of pro-fibrotic gene Col3a1: 27.1%
  reduction of expression of pro-fibrotic gene Colla1: 36.3%
  reduction of expression of pro-fibrotic gene Galectin 1: 64.7%
  reduction of expression of pro-fibrotic gene αSMA: 37%
[2]; [10]
  reduction in fibrosis (fibrosis score): 50.2%
  reduction in hydroxyproline: 46.3%
  reduction in type 1 collagen deposition: 60.2%
[2]; relative to untreated controls
  liver cholesterol: Significant reductions
  liver triglycerides: Significant reductions
[3]
  lung Collagen III staining: decreased
  lung fibrosis score: decreased
  lung hydroxyproline levels: reduced levels
[4]
  palmar fascia Collagen III staining: decreased
  palmar fascia fibrosis score: decreased
  palmar fascia hydroxyproline levels: reduced levels
[5]
  injection site skin Collagen III staining: decreased
  injection site skin fibrosis score: decreased
  injection site skin hydroxyproline levels: reduced levels
[6]
  liver Collagen I staining: decreased
  liver fibrosis score: decreased
  liver hydroxyproline levels: reduced levels
[7]
  liver Collagen I staining: decreased
  liver fibrosis score: decreased
  liver hydroxyproline levels: reduced levels

— patent US11707472B2, “Compositions for the treatment of fibrosis” (Viking Therapeutics, Inc., priority 2017, dated 2023)
